Test results published in publication PMC9127750, “Structure-based design of CDC42 effector interaction inhibitors for the treatment of cancer” (Cell reports, 2022).
Where “and” joins values, the source holds several entries; their conditions need not be identical. Equal entries are not always repeated.

System: WM3248 melanoma cells, 486 antibodies
Experiment: Reverse phase protein arrays (RPPA)
Format: cell-based, Human
From the text: Pellets were snap frozen in liquid nitrogen and shipped to MD Anderson Cancer Center core RPPA facility for RPPA analysis (Table S5). Three biological replicates for each sample were generated.
Nomenclatures on the RPPA heatmaps: name_of_antibody.species_of_antibody.status_of_antibody. V - antibody validated; C - validation of antibody in progress; Q - antibody nonspecific; E – under evaluation; antibodies raised in M - mouse, G - goat, R - rabbit, or T - rat.

[1] = level 20 normalized to 0, single replicates

## CN(C)c1cccc(Nc2cc(-c3ccccc3)nc(C3CCNCC3)n2)c1 [ARN22089, N1,N1-dimethyl-N3-(6-phenyl-2-(piperidin-4-yl)pyrimidin-4-yl)benzene-1,3-diamine]
[1]
  VHL.EPPK1.M.C Norm_20_1 to Norm_20_3: 0.500 and 1.345 and 0.800
  VHL.R.C Norm_20_1 to Norm_20_3: 0.916 and 0.962 and 0.841
  Vinculin.M.V Norm_20_1 to Norm_20_3: 0.883 and 0.898 and 1.015
  WIPI1.R.C Norm_20_1 to Norm_20_3: 1.294 and 1.483 and 1.388
  WIPI2.R.C Norm_20_1 to Norm_20_3: 1.222 and 0.891 and 1.265
  WTAP.R.V Norm_20_1 to Norm_20_3: 1.313 and 1.590 and 0.930
  Wee1.R.C Norm_20_1 to Norm_20_3: 0.789 and 0.790 and 1.159
  Wee1_pS642.R.C Norm_20_1 to Norm_20_3: 0.904 and 0.831 and 1.081
  XBP.1.G.C Norm_20_1 to Norm_20_3: 0.929 and 1.289
  XIAP.R.C Norm_20_1 to Norm_20_3: 0.985 and 0.834 and 1.059
  XPA.M.V Norm_20_1 to Norm_20_3: 0.800 and 0.980 and 0.934
  XPF.R.C Norm_20_1 to Norm_20_3: 0.837 and 0.882
  XRCC1.R.C Norm_20_1 to Norm_20_3: 0.881 and 1.133
  YAP.R.C Norm_20_1 to Norm_20_3: 0.917 and 1.135 and 0.817
  YAP_pS127.R.V Norm_20_1 to Norm_20_3: 1.228 and 0.736
  YB1_pS102.R.V Norm_20_1 to Norm_20_3: 0.867
  YES1.R.V Norm_20_1 to Norm_20_3: 0.976 and 0.995
  YTHDF2.R.V Norm_20_1 to Norm_20_3: 1.165 and 1.218 and 1.246
  YTHDF3.R.C Norm_20_1 to Norm_20_3: 1.003 and 1.082 and 1.010
  ZAP.70.R.V Norm_20_1 to Norm_20_3: 0.955 and 0.894 and 0.817
  ZEB1.R.V Norm_20_1 to Norm_20_3: 0.925 and 1.022 and 0.936
Level 20 vs 0
  HLA.DQA1.R.V Norm_20 Average: 0.977
  HMHA1.R.V Norm_20 Average: 1.016
  HNRNPK.R.V Norm_20 Average: 0.991
  HSP27.M.C Norm_20 Average: 0.811
  HSP27_pS82.R.V Norm_20 Average: 0.961
  HSP60.R.V Norm_20 Average: 0.996
  HSP70.R.C Norm_20 Average: 1.202
  Hexokinase.I.R.C Norm_20 Average: 1.201
  Hif.1αR.C Norm_20 Average: 1.051
  Histone.H3.R.V Norm_20 Average: 5.937
  Histone.H3_pS10.R.V Norm_20 Average: 2.467
  IDO.R.C Norm_20 Average: 0.964
  IGF1R_pY1135_Y1136.R.V Norm_20 Average: 0.962
  IGFBP3.M.V Norm_20 Average: 0.905
  IL.6.R.C Norm_20 Average: 0.971
  IMP3.R.C Norm_20 Average: 0.967
  INPP4b.R.C Norm_20 Average: 0.976
  IRF.1.R.V Norm_20 Average: 0.958
  IRF.3.R.V Norm_20 Average: 0.882
  IRS1.R.V Norm_20 Average: 1.050
  IRS2.R.C Norm_20 Average: 1.223
  JAB1.M.C Norm_20 Average: 0.970
  JNK2.R.V Norm_20 Average: 1.099
  JNK_pT183_Y185.R.C Norm_20 Average: 1.003
  Jagged1.R.V Norm_20 Average: 1.028
  KAP1.R.V Norm_20 Average: 1.259
  KEAP1.R.V Norm_20 Average: 1.000
  LAD1.R.V Norm_20 Average: 0.964
  LC3A.B.R.C Norm_20 Average: 1.242
  LCN2.R.V Norm_20 Average: 1.622
  LDHA.R.C Norm_20 Average: 1.558
  LRP6_pS1490.R.V Norm_20 Average: 1.024
  Lck.R.V Norm_20 Average: 1.304
  Lyn.R.V Norm_20 Average: 1.028
  MACC1.R.V Norm_20 Average: 0.935
  MAPK_pT202_Y204.R.C Norm_20 Average: 0.567
  MCT4.R.V Norm_20 Average: 0.993
  MDM2_pS166.R.V Norm_20 Average: 1.398
  MEK1.R.V Norm_20 Average: 1.549
  MEK1_pS217_S221.R.V Norm_20 Average: 0.977
  MEK2.R.V Norm_20 Average: 1.030
  MERIT40.R.C Norm_20 Average: 0.913
  MERIT40_pS29.R.V Norm_20 Average: 1.026
  METTL3.R.V Norm_20 Average: 1.246
  MIF.R.C Norm_20 Average: 0.892
  MIG6.R.V Norm_20 Average: 0.907
  MLH1.M.V Norm_20 Average: 0.889
  MLKL.R.V Norm_20 Average: 0.854
  MMP2.R.V Norm_20 Average: 0.934
  MMP14.R.V Norm_20 Average: 1.655
  MR1.M.C Norm_20 Average: 0.987
  MRAP.R.C Norm_20 Average: 1.110
  MSH2.R.C Norm_20 Average: 0.939
  MSH6.R.C Norm_20 Average: 1.329
  MSI2.R.C Norm_20 Average: 1.187
  MTCO1.M.V Norm_20 Average: 1.135
  MTSS1.M.C Norm_20 Average: 0.937
  Mcl.1.R.V Norm_20 Average: 0.754
  MelanA.R.C Norm_20 Average: 1.025
  Melanoma.gp100.R.C Norm_20 Average: 1.012
